In ChEMBL document CHEMBL5291721, “A preclinical secondary pharmacology resource illuminates target-adverse drug reaction associations of marketed drugs” (Nat Commun, 2023):

Assays:
[1] = biological target: Beta-2 adrenergic receptor (Homo sapiens, UniProt P07550); type: functional, cell-based
[2] = biological target: T1, Muscarinic acetylcholine receptor M1 (Homo sapiens, UniProt P11229); type: functional
T1 sequence (P11229 whole entry): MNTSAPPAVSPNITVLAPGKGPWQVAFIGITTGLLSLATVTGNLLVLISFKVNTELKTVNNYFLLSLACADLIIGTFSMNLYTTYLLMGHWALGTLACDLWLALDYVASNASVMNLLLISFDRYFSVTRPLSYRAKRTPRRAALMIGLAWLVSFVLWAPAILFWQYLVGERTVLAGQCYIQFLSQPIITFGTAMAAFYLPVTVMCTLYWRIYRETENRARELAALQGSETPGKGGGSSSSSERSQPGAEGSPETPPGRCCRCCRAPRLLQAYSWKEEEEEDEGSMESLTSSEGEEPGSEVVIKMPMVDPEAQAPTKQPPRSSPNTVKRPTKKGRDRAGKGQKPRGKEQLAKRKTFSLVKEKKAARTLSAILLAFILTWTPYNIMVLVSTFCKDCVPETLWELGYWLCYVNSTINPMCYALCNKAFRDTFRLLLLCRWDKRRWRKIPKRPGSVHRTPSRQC

Cannabinoid receptor 1 [3] = biological target: T2, Cannabinoid receptor 1 (Homo sapiens, UniProt P21554); type: functional, cell-based
Cannabinoid receptor 1 [4] = biological target: T2, Cannabinoid receptor 1; type: functional, cell-based; remark: listed apart in the source
Estrogen receptor = biological target: T3, Estrogen receptor (Homo sapiens, UniProt P03372)
T3 sequence (P03372 whole entry): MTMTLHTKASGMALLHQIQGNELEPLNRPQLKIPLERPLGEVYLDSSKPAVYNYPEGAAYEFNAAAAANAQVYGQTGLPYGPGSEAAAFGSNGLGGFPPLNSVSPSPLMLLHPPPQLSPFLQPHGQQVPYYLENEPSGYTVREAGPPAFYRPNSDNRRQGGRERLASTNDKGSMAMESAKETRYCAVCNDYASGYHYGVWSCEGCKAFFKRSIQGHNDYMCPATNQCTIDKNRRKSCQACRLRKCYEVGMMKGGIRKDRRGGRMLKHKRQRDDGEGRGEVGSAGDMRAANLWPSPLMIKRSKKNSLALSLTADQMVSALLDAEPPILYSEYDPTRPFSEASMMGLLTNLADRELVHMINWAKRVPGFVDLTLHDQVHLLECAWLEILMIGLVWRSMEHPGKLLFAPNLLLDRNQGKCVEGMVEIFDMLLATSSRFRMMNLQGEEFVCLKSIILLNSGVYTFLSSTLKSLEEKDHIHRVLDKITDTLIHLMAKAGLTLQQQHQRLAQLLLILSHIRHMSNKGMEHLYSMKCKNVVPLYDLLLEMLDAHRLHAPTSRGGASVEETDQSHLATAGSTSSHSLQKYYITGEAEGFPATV

Histamine H1 receptor = Histamine H1 receptor (Homo sapiens, UniProt P35367)
[5] = biological target: 5-hydroxytryptamine receptor 2A (Homo sapiens, UniProt P28223); type: functional, cell-based
Mu-type opioid receptor = Mu-type opioid receptor (Homo sapiens, UniProt P35372); test: biochemical; type: functional
[6] = biological target: T4, Alpha-1A adrenergic receptor (Homo sapiens, UniProt P35348); type: functional, cell-based
T4 sequence (P35348 whole entry): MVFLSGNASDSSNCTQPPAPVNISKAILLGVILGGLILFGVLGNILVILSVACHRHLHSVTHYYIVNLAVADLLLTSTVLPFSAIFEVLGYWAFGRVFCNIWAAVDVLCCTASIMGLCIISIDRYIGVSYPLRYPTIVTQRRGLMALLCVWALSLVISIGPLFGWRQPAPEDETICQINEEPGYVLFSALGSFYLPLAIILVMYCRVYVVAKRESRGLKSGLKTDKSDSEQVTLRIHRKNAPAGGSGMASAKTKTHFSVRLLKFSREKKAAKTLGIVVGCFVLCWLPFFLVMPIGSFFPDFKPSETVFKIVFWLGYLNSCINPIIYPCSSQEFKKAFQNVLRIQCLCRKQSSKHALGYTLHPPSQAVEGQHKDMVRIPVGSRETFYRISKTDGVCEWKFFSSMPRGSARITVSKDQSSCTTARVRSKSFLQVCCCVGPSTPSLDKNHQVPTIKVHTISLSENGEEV

[7] = biological target: T5, Alpha-2B adrenergic receptor (Homo sapiens, UniProt P18089)
T5 sequence (P18089 whole entry): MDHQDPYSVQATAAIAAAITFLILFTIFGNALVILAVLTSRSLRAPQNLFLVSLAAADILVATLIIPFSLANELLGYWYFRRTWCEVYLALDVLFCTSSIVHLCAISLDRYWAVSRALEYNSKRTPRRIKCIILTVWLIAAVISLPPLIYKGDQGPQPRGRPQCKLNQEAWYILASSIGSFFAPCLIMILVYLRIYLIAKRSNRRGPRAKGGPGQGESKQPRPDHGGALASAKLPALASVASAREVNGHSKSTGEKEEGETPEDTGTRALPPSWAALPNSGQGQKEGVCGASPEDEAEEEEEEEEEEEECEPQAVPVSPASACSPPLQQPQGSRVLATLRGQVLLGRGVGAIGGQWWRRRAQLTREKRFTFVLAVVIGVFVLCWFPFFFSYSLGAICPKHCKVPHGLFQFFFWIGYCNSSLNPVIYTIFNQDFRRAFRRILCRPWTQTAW

[8] = biological target: T6, 5-hydroxytryptamine receptor 1A (Homo sapiens, UniProt P08908); type: functional, cell-based
T6 sequence (P08908 whole entry): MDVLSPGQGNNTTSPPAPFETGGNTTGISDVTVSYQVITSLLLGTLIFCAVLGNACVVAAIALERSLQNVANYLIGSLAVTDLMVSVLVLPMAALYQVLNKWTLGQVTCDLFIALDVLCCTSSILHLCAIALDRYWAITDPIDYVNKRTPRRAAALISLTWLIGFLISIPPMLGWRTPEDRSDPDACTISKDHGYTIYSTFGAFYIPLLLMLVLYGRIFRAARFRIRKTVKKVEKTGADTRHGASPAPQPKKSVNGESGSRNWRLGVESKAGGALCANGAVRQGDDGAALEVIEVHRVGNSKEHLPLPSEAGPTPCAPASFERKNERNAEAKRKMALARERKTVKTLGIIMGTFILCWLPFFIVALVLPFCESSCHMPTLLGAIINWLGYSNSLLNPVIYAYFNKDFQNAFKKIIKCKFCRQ

[9] = biological target: T4, Alpha-1A adrenergic receptor
Cannabinoid receptor 1 [10] = biological target: T2, Cannabinoid receptor 1
Also: assay procedure not described here.

T2 sequence (P21554 whole entry): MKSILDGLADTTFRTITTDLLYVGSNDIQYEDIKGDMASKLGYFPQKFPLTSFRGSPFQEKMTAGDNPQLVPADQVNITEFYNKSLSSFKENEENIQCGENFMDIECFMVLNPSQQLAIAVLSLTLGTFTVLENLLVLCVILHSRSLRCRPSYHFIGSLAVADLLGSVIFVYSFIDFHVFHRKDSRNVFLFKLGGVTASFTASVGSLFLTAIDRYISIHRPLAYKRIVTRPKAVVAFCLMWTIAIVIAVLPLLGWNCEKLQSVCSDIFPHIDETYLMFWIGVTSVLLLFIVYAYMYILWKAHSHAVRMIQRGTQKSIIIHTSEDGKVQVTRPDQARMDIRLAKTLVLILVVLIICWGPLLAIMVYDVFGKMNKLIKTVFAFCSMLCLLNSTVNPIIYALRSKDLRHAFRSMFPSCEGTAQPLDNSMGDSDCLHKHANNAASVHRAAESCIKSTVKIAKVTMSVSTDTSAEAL
Sequence of Mu-type opioid receptor (P35372 whole entry): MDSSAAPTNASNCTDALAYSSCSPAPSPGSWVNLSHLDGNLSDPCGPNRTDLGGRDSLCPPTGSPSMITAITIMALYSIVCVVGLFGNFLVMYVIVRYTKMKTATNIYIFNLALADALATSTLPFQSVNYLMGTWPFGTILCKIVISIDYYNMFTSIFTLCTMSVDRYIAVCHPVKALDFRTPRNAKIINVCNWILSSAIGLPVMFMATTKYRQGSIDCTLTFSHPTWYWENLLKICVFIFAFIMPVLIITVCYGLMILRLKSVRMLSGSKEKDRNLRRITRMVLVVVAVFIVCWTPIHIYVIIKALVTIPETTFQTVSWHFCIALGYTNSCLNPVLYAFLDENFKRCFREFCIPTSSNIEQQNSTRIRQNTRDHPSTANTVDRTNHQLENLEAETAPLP
Sequence of Beta-2 adrenergic receptor (P07550 whole entry): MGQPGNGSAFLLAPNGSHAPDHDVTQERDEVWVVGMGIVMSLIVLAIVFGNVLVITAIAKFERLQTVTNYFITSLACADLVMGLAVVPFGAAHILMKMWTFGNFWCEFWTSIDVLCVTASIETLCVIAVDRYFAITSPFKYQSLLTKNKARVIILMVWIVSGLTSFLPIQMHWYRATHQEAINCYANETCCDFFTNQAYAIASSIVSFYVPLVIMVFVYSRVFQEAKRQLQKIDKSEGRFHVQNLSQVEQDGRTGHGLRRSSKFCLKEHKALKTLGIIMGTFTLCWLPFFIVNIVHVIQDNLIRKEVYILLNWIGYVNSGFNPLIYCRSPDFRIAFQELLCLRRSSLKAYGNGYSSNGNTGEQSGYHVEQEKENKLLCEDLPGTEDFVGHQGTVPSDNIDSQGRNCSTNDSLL
Sequence of Histamine H1 receptor (P35367 whole entry): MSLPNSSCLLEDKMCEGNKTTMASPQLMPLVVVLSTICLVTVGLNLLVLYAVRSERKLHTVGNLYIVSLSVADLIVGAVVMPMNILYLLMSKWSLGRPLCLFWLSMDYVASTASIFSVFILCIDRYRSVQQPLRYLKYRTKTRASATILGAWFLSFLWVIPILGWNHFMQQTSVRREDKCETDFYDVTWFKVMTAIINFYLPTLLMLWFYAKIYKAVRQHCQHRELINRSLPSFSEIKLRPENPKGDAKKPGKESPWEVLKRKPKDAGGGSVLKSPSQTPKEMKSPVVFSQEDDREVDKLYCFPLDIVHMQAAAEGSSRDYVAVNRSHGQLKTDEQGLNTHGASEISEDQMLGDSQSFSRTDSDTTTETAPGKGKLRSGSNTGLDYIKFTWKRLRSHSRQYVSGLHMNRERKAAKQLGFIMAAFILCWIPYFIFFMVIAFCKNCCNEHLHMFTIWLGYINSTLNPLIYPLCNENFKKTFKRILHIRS
Sequence of 5-hydroxytryptamine receptor 2A (P28223 whole entry): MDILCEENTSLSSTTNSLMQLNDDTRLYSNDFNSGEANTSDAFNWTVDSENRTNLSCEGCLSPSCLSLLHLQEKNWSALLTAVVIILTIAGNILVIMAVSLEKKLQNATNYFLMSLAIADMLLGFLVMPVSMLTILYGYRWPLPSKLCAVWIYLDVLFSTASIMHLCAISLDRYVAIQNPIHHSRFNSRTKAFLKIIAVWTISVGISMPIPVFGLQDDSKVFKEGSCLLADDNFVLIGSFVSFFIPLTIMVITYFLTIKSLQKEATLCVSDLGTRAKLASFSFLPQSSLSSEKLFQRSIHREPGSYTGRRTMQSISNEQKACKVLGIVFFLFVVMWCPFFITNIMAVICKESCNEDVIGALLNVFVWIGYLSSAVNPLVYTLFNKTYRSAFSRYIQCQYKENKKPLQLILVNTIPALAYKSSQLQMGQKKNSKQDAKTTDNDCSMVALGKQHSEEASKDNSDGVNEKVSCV

Row | SMILES | AC50 [1] | AC50 [2] | AC50 (Cannabinoid receptor 1 [3]) | AC50 (Cannabinoid receptor 1 [4]) | AC50 (Estrogen receptor) | AC50 (Histamine H1 receptor) | AC50 [5] | AC50 (Mu-type opioid receptor) | AC50 [6] | AC50 [7] | AC50 [8] | AC50 [9] | AC50 (Cannabinoid receptor 1 [10])
1 | CO/N=C(\C(=O)N[C@@H]1C(=O)N2C(C(=O)O)=CCS[C@H]12)c1csc(N)n1 [CEFTIZOXIME] | > 30 µM | > 30 µM | > 30 µM | > 30 µM | > 30 µM | > 30 µM | > 30 µM | > 30 µM | > 30 µM |  |  |  | 
2 | CO[C@H]1C[C@H](O[C@H]2CC[C@@]3(C)[C@H](CC[C@@H]4[C@@H]3CC[C@]3(C)[C@@H](C5=CC(=O)OC5)[C@@H](OC(C)=O)C[C@]43O)C2)O[C@@H](C)[C@@H]1O [OLEANDRIN] | > 30 µM | > 30 µM | > 30 µM | > 30 µM |  | > 30 µM | > 30 µM |  | > 30 µM | > 30 µM | > 30 µM |  | 
3 | O=c1[nH]c2ccccc2n1CCCN1CCN(C(c2ccccc2)c2ccccc2)CC1 [OXATOMIDE] | > 30 µM | 5.8 µM | > 30 µM | > 30 µM |  | 0.034 µM | > 30 µM | 1.8 µM | 4.1 µM | > 30 µM |  |  | 
4 | CC1=C(/C=C/C(C)=C/C=C/C(C)=C/CO)C(C)(C)CCC1 [RETINOL] |  | > 10 µM |  |  | > 30 µM | > 10 µM | > 10 µM | > 30 µM |  | > 30 µM | > 10 µM | > 10 µM | > 10 µM
5 | NS(=O)(=O)c1cc2c(cc1Cl)N=C(CSCc1ccccc1)NS2(=O)=O [BENZTHIAZIDE] |  | > 30 µM |  |  | > 30 µM | > 30 µM | > 10 µM | > 30 µM |  | 7.4 µM | > 10 µM | > 30 µM | > 10 µM
6 | CCN1CCCC1CNC(=O)c1cc(S(=O)(=O)CC)ccc1OC (configuration not stated) [SULTOPRIDE] | > 30 µM | > 30 µM | > 30 µM | > 30 µM |  | > 30 µM | > 30 µM | > 30 µM |  | 10 µM | > 30 µM |  | 
7 | CC(C)[C@@H](C)/C=C/[C@@H](C)[C@H]1CC[C@H]2/C(=C/C=C3\C[C@@H](O)CC[C@@H]3C)CCC[C@]12C [DIHYDROTACHYSTEROL] |  | > 10 µM |  |  | > 30 µM | > 10 µM | > 10 µM |  |  | > 10 µM | > 10 µM | > 10 µM | > 10 µM
8 | CCCC(C)(COC(N)=O)COC(N)=O [MEPROBAMATE] |  | > 30 µM |  |  |  | > 10 µM | > 10 µM | > 30 µM |  | > 10 µM | > 10 µM | > 30 µM | > 10 µM
9 | CCOC(=O)[C@@H](N)Cc1ccc(-c2cc(O[C@H](c3ccc(Cl)cc3-n3ccc(C)n3)C(F)(F)F)nc(N)n2)cc1 [TELOTRISTAT ETHYL] | > 30 µM | > 30 µM | > 30 µM |  |  | > 30 µM | > 30 µM |  | > 30 µM | 29 µM |  |  | 
